Experimental data published in patent EP3442964B1, “NOVEL N-[(PYRIMIDINYLAMINO)PROPANYL]-AND N [(PYRAZINYLAMINO)PROPANYL]ARYLCARBOXAMIDES” (Boehringer Ingelheim International GmbH, priority 2016, dated 2017).
Like-named read-outs stand apart in the source and are kept apart here.

What was measured:
human orexin 2 receptor = target: T1, human orexin 2 receptor (Homo sapiens, UniProt O43614); type: cell-based
T1 sequence (O43614 1-444): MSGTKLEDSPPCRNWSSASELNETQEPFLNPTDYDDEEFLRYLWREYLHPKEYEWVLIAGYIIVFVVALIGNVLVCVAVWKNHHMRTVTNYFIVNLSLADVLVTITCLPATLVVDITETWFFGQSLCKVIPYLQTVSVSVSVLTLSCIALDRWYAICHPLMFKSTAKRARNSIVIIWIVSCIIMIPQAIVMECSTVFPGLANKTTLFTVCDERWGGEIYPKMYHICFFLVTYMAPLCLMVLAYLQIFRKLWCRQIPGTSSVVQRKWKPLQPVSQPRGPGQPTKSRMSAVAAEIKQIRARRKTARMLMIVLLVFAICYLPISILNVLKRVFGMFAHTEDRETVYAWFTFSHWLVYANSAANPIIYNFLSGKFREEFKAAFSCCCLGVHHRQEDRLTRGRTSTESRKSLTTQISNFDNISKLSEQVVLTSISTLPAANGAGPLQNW
Excerpt: Chem. Genomics 2009, 3, 22-32.

[1] = Assay C: metabolic stability in human liver microsomes (human MST); type: in vitro ADME; details: pooled human liver microsomes, pH 7.6, 1 µM test compound, 37°C
Excerpt: Stability in human liver microsomes refers to the susceptibility of compounds to biotransformation in the context of selecting and/or designing drugs with favorable pharmacokinetic properties. The primary site of metabolism for many drugs is the liver. Human liver microsomes contain the cytochrome P450s (CYPs), and thus represent a model system for studying drug metabolization in vitro. Enhanced stability in human liver microsomes is associated with several advantages, including increased bioavailability and longer half-life, which can enable lower and less frequent dosing of patients. Thus, enhanced stability in human liver microsomes is a favorable characteristic for compounds that are to be used for drugs.
The metabolic stability of the compounds according to the invention may be investigated as follows: The metabolic degradation of the test compound is assayed at 37°C with pooled human liver microsomes. The final incubation volume of 100 µL per time point contains TRIS buffer pH 7.6 at room temperature (0.1 M), MgCl2 (5 mM), microsomal protein (1 mg/mL) and the test compound at a final concentration of 1 µM. Following a short pre-incubation period at 37°C , the reactions are initiated by addition of beta-nicotinamide adenine dinucleotide phosphate, reduced form (NADPH, 1 mM), and terminated by transferring an aliquot into solvent after different time points. After centrifugation (10000 g, 5 min), an aliquot of the supernatant is assayed by LC-MS/MS for the amount of parent compound. The half-life (t1/2) is determined by the slope of the semi-logarithmic plot of the concentration-time profile.

human MDR1 P-gp = target: T2, human MDR1 P-gp (Homo sapiens, UniProt P08183); test: Assay D: efflux in MDCK cells transfected with the human MDR1 gene; type: in vitro ADME; details: MDCK-MDR1 monolayers, pH 7.4, 37°C
T2 construct: expressed in transfected cells; host or cells: MDCK (MDCK-MDR1)
Experimental: The MDCK assay provides information on the potential of a compound to pass the blood brain barrier. Permeability measurements across polarized, confluent MDCK-MDR1 cell monolayers grown on permeable filter supports are used as an in vitro absorption model: apparent permeability coefficients (PE) of the compounds across the MDCK-MDR1 cell monolayers are measured (pH 7.4, 37°C) in apical-to-basal (AB) and basal-to-apical (BA) transport direction. The AB permeability (PEAB) represents drug absorption from the blood into the brain and the BA permeability (PEBA) drug efflux from the brain back into the blood via both, passive permeability as well as active transport mechanisms mediated by efflux and uptake transporters that are expressed on the MDCK-MDR1 cells, predominantly by the overexpressed human MDR1 P-gp. Identical or similar permeabilities in both transport directions indicate passive permeation, vectorial permeability points to additional active transport mechanisms. Higher PEBA than PEAB (PEBA/PEAB > 5) indicates the involvement of active efflux mediated by MDR1 P-gp, which might compromises the goal to achieve sufficient brain exposure. Therefore this assay provides valuable support for selection of compounds applicable for further in vivo testing. High permeability not limited by efflux at the blood brain barrier is a favourable characteristic for compounds that are to be used for drugs acting primarily in the CNS
Apparent permeability coefficients (PE) of the compounds across the MDCK-MDR1 cell monolayers are measured (pH 7.4, 37°C) in apical-to-basal (AB) and basal-to-apical (BA) transport direction. AB permeability (PEAB) represents drug absorption from the blood into the brain and BA permeability (PEBA) drug efflux from the brain back into the blood via both passive permeability as well as active transport mechanisms mediated by efflux and uptake transporters that are expressed on the MDCK-MDR1 cells, predominantly by the overexpressed human MDR1 P-gp. The compounds are assigned to permeability/absorption classes by comparison of the AB permeabilities with the AB permeabilities of reference compounds with known in vitro permeability and oral absorption in the human. Identical or similar permeabilities in both transport directions indicate passive permeation, vectorial permeability points to additional active transport mechanisms. Higher PEBA than PEAB indicates the involvement of active efflux mediated by MDR1 P-gp. Active transport is concentration- dependently saturable.
MDCK-MDR1 cells (1-2 x 10e5 cells/1 cm2 area) are seeded on filter inserts (Costar transwell polycarbonate or PET filters, 0.4 µm pore size) and cultured (DMEM) for 7 days. Subsequently, the MDR1 expression is boosted by culturing the cells with 5 mM sodium butyrate in full medium for 2 days. Compounds are dissolved in appropriate solvent (like DMSO, 1 -20 mM stock solutions). Stock solutions are diluted with HTP-4 buffer (128.13 mM NaCl, 5.36 mM KCI, 1 mM MgSO4, 1.8 mM CaCl2, 4.17 mM NaHCO3, 1.19 mM Na2HPO4 x 7H2O, 0.41 mM NaH2PO4xH2O, 15 mM HEPES, 20 mM glucose, 0.25 % BSA, pH 7.4) to prepare the transport solutions (0.1 - 300 µM compound, final DMSO <= 0.5 %). The transport solution (TL) is applied to the apical or basolateral donor side for measuring A-B or B-A permeability (3 filter replicates), respectively. The receiver side contains the same buffer as the donor side. Samples are collected at the start and end of experiment from the donor and at various time intervals for up to 2 hours also from the receiver side for concentration measurement by HPLC-MS/MS or scintillation counting. Sampled receiver volumes are replaced with fresh receiver solution.

[2] = read-out: Assay C: Human MST t1/2
[3] = read-out: Assay D:MDCK efflux ratio (BA/AB)
[4] = read-out: Data as determined in Assay C: Human MST t1/2

T2 sequence (P08183 whole entry): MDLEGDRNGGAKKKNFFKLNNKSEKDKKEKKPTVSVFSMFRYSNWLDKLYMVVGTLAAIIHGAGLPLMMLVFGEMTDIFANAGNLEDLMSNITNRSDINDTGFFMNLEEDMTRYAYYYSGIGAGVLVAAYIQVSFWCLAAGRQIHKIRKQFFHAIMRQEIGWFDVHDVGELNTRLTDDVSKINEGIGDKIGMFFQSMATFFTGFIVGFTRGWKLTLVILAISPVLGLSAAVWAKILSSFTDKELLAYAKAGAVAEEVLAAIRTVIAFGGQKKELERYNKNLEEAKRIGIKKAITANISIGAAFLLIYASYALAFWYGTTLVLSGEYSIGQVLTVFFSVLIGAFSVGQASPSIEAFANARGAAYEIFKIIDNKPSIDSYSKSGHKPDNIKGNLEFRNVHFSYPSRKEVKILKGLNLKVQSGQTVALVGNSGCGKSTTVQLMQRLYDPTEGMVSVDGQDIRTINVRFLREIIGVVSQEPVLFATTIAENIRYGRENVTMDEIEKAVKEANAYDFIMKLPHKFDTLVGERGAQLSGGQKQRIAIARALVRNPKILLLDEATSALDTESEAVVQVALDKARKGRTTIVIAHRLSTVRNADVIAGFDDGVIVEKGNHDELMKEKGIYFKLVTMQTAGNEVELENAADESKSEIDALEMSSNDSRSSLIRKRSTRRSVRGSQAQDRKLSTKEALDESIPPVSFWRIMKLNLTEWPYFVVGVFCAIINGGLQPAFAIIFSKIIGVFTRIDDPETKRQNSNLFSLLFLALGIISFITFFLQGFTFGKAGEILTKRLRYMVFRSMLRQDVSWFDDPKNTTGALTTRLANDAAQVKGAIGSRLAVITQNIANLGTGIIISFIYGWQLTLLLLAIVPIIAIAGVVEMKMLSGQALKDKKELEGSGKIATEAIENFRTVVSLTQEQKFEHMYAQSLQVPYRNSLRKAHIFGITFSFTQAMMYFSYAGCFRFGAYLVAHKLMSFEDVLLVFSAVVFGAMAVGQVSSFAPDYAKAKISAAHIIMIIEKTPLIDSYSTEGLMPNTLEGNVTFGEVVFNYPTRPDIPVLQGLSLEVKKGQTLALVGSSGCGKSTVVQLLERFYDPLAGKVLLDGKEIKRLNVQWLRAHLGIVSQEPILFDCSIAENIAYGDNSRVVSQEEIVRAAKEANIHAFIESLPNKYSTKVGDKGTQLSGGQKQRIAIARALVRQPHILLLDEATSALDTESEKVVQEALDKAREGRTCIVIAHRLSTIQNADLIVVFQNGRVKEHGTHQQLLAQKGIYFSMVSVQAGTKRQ

Compound	Kb (human orexin 2 receptor; 0.5 nM Orexin A) [nM]	half-life at 1 µM [1, 2] [h]	efflux ratio (human MDR1 P-gp; [3])	Kb (human orexin 2 receptor; 0.5 nM Orexin A concentration, read-out: Assay B: OX2R Kb) [nM]	efflux ratio (human MDR1 P-gp; read-out: Assay D: MDCK efflux ratio (BA/AB))	half-life at 1 µM [1, 4] [h]
CCN(C(=O)c1ccc(F)cc1-n1nccn1)[C@@H](C)CNc1ncc(C(F)(F)F)cn1 [Example 2]	64.5	0.717	< 3	–	–	–
CCN(C(=O)c1ccc(F)c(F)c1-n1nccn1)[C@@H](C)CNc1ncc(C(F)(F)F)cn1 [Example 4]	46.9	1.58	< 3	–	–	–
CCN(C(=O)c1cc(F)ccc1-n1nccn1)[C@@H](C)CNc1ncc(C(F)(F)F)cn1 [Example 5]	35.3	2	< 3	–	–	–
Cc1nc(C(=O)N(C)CCNc2ncc(Br)cn2)c(-c2ccc(F)cc2)s1 [Example 6 in WO03/051872, reference compound]	–	0.133	–	101	0.8	–
CCN(C(=O)c1c(F)cccc1-n1nccn1)[C@@H](C)CNc1ncc(C(F)(F)F)cn1 [Example 7]	33.4	1.27	< 3	–	–	–
CCN(C(=O)c1cc(C#N)ccc1-n1nccn1)[C@@H](C)CNc1ncc(C(F)(F)F)cn1 [Example 8]	33.4	> 2	3 to 5	–	–	–
CCN(C(=O)c1cc(F)cnc1-n1nccn1)[C@@H](C)CNc1ncc(C(F)(F)F)cn1 [Example 10]	1060	> 2	< 3	–	–	–
CCN(C(=O)c1cccc(F)c1-c1ncccn1)[C@@H](C)CNc1ncc(C(F)(F)F)cn1 [Example 11]	19.3	> 2	3 to 5	–	–	–
CCN(C(=O)c1nc(C)ccc1-n1cccn1)[C@@H](C)CNc1ncc(C(F)(F)F)cn1 [Example 12]	129	1.08	< 3	–	–	–
CCN(C(=O)c1c(F)cccc1-c1ncccn1)[C@@H](C)CNc1ncc(C(F)(F)F)cn1 [Example 13]	62	> 2	< 3	–	–	–
C[C@@H](CNc1ccc(Cl)cn1)N(C)C(=O)c1ccccc1-c1ccccc1 [Example 14 in WO2016/034882, reference compound]	–	0.0333	–	–	–	–
CCN(C(=O)c1ccccc1-c1noc(C)n1)[C@@H](C)CNc1ncc(C(F)(F)F)cn1 [Example 14]	44	1.52	< 3	–	–	–
CCN(C(=O)c1cc(F)ccc1-c1ncccn1)[C@@H](C)CNc1ncc(C(F)(F)F)cn1 [Example 15]	22.9	> 2	< 3	–	–	–
CCN(C(=O)c1ccc(F)cc1-c1ncccn1)[C@@H](C)CNc1ncc(C(F)(F)F)cn1 [Example 16]	76.8	1.67	< 3	–	–	–
CCN(C(=O)c1ncccc1-c1ccccc1)[C@@H](C)CNc1ncc(C(F)(F)F)cn1 [Example 19]	12.5	> 2	< 3	–	–	–
CCN(C(=O)c1cncnc1-c1ccccc1)[C@@H](C)CNc1ncc(C(F)(F)F)cn1 [Example 20]	68	0.717 to 1.67	< 3	–	–	–
CCN(C(=O)c1nccnc1-c1ccccc1)[C@@H](C)CNc1ncc(C(F)(F)F)cn1 [Example 21]	55.9	> 2	< 3	–	–	–
CCN(C(=O)c1ccccc1-n1nccn1)[C@@H](C)CNc1cnc(C(F)(F)F)cn1 [Example 22]	7.37	> 2	3 to 5	–	–	–
CCN(C(=O)c1ccc(F)cc1-c1nnc(C)o1)[C@@H](C)CNc1cnc(C(F)(F)F)cn1 [Example 23]	222	> 2	3 to 5	–	–	–
CCN(C(=O)c1nc(C)ccc1-c1ncccn1)[C@@H](C)Cn1nnc(-c2ccc(F)cc2)n1 [Example 69 in WO2013/187466, reference compound]	–	–	–	–	–	0.383
CCN(C(=O)c1cc(F)ccc1-c1ncccn1)[C@@H](C)Cn1nnc(-c2ccc(F)cc2)n1 [Example 70 in WO2013/187466, reference compound]	–	–	–	–	–	0.267
